# Data published in patent US10968225B2, “Compounds and compositions for the treatment of cystic fibrosis” (Fondazione Istituto Italiano Di Tecnologia, priority 2017, dated 2021).
# Biological target: T1, mutant CFTR (Homo sapiens, UniProt P13569, DEL508-508)
# T1 construct: expressed in transfected cells
# Experiment: Fluorescence (HS-YFP) assay for CFTR activity, corrector assay
# Assay type: cell-based
# Conditions: CFBE41o- and FRT cells with stable expression of mutant CFTR, read-out: activity (EC50)
# T1 sequence (P13569 with tags, fused parts or gaps DEL508-508): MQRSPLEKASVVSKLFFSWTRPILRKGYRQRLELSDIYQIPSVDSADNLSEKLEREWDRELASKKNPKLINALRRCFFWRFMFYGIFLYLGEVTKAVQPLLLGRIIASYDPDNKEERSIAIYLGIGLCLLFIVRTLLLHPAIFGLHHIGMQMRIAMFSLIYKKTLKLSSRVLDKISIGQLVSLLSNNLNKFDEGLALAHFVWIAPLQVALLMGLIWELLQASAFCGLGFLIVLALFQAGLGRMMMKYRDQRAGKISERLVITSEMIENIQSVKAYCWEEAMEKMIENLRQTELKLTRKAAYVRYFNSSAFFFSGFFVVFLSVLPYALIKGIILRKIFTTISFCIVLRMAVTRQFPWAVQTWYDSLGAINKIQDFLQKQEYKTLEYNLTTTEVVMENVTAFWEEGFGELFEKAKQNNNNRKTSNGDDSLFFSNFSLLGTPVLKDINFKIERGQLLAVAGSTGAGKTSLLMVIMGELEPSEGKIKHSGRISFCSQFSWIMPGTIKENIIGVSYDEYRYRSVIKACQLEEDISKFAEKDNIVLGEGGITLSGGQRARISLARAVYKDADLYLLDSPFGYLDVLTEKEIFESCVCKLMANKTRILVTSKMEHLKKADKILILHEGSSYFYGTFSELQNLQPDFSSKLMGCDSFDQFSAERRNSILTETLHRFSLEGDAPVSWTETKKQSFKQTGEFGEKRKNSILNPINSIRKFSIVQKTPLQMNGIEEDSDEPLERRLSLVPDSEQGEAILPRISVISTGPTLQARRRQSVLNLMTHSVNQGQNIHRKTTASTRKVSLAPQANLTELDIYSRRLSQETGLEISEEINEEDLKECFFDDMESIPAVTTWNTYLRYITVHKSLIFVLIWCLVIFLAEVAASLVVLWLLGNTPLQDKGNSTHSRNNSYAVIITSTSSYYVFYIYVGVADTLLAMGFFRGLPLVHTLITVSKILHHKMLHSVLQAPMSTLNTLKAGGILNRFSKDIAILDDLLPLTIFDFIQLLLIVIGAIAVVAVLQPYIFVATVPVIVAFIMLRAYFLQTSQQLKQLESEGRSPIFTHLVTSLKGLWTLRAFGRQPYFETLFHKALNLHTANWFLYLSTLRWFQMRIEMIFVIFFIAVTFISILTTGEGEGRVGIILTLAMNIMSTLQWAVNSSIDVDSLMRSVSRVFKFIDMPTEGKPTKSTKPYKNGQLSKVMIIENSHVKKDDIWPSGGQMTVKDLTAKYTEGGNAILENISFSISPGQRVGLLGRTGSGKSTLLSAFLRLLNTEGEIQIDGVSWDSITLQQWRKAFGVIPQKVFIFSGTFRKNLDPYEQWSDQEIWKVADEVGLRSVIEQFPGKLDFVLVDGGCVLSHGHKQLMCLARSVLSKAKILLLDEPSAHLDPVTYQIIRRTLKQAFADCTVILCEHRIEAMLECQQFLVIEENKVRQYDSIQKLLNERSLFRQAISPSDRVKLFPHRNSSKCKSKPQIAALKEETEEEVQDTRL
row,SMILES,EC50 [nM]
1,"COc1ccc(N(C)C(=O)c2cccc(-n3nc(C(F)(F)F)c4c3CCN(C(=O)C(C)(C)C)C4)c2)cn1 [Compound 085, 3-[5-(2,2-Dimethylpropanoyl)-3-(trifluoromethyl)-6,7-dihydro-4Hpyrazolo[4,3-c]pyridin-1-yl]-N-(6-methoxy-3-pyridyl)-N-methylbenzamide]",< 1000
2,"Cc1nn(CCC(=O)O)c(C)c1S(=O)(=O)N1CCc2c(c(C(F)(F)F)nn2-c2cccc(C(=O)N(C)c3ccc4c(c3)OCO4)c2)C1 [Compound 086, 3-[4-[[1-[3-[1,3-Benzodioxol-5-yl(methyl)carbamoyl]phenyl]-3-(trifluoromethyl)-6,7-dihydro-4H-pyrazolo[4,3-c]pyridin-5-yl]sulfonyl]-3,5-dimethyl-pyrazol-1-yl] propanoic acid]",< 1000
3,"Cc1[nH]nc(C(=O)O)c1S(=O)(=O)N1CCc2c(c(C(F)(F)F)nn2-c2cccc(C(=O)N(C)c3ccc4c(c3)OCO4)c2)C1 [Compound 089, 4-[[1-[3-[1,3-Benzodioxol-5-yl(methyl)carbamoyl]phenyl]-3-(trifluoromethyl)-6,7-dihydro-4H-pyrazolo[4,3-c]pyridin-5-yl]sulfonyl]-5-methyl-1H-pyrazole-3-carboxylic acid]",< 1000
4,"COc1cc(N(C)C(=O)c2cccc(-n3nc(C(F)(F)F)c4c3CCN(C(=O)C(C)(C)C)C4)c2)ccn1 [Compound 090, 3-[5-(2,2-Dimethylpropanoyl)-3-(trifluoromethyl)-6,7-dihydro-4H-pyrazolo[4,3-c]pyridin-1-yl]-N-(2-methoxy-4-pyridyl)-N-methyl-benzamide]",< 1000
5,"Cc1cn2cc(N(C)C(=O)c3cccc(-n4nc(C(F)(F)F)c5c4CCN(C(=O)C(C)(C)C)C5)c3)ccc2n1 [Compound 091, 3-[5-(2,2-Dimethylpropanoyl)-3-(trifluoromethyl)-6,7-dihydro-4H-pyrazolo[4,3-c]pyridin-1-yl]-N-methyl-N-(2-methylimidazo[1,2-a]pyridin-6-yl)benzamide]",1000 to 2000
6,"Cc1noc(C)c1S(=O)(=O)N1CCc2c(c(C(F)(F)F)nn2-c2cccc(C(=O)N(C)c3ccc4c(c3)OC(F)(F)O4)c2)C1 [Compound 096, N-(2,2-Difluoro-1,3-benzodioxol-5-yl)-3-[5-(3,5-dimethylisoxazol-4-yl)sulfonyl-3-(trifluoromethyl)-6,7-dihydro-4H-pyrazolo[4,3-c]pyridin-1-yl]-N-methyl-benzamide]",< 1000
7,"CC(C)c1nn(-c2cccc(C(=O)N(C)c3ccc4c(c3)OC(F)(F)O4)c2)c2c1CCCC2 [Compound 102, N-(2,2-difluoro-1,3-benzodioxol-5-yl)-3-(3-isopropyl-4,5,6,7-tetrahydroindazol-1-yl)-N-methyl-benzamide]",1000 to 2000
8,"Cc1nn(-c2cccc(C(=O)N(C)c3ccc4c(c3)OC(F)(F)O4)c2)c2c1CCCC2 [Compound 103, N-(2,2-Difluoro-1,3-benzodioxol-5-yl)-N-methyl-3-(3-methyl-4,5,6,7-tetrahydroindazol-1-yl)benzamide]",> 2000
9,"CN(C(=O)c1cccc(-n2nc(C(F)(F)F)c3c2C(Oc2ccc(C(=O)O)cc2)CCC3)c1)c1ccc2c(c1)OC(F)(F)O2 (stereo not drawn) [Compound 109, 4-[[1-[3-[(2,2-Difluoro-1,3-benzodioxol-5-yl)-methyl-carbamoyl]phenyl]-3-(trifluoromethyl)-4,5,6,7-tetrahydroindazol-7-yl]oxy]benzoic acid]",< 1000
10,"Cc1nn(-c2cccc(C(=O)N(C)c3ccc4c(c3)OCO4)c2)c2c1CCCC2 [Compound 132, N-(1,3-Benzodioxol-5-yl)-N-methyl-3-(3-methyl-4,5,6,7-tetrahydroindazol-1-yl)benzamide]",1000 to 2000
11,"CC(C)c1nn(-c2cccc(C(=O)N(C)c3ccc4c(c3)OCO4)c2)c2c1CCCC2 [Compound 133, N-(1,3-Benzodioxol-5-yl)-3-(3-isopropyl-4,5,6,7-tetrahydroindazol-1-yl)-N-methyl-benzamide]",< 1000
12,"CN(C(=O)c1cccc(-n2nc(C(F)(F)F)c3c2CCN(CCCC(=O)O)C3)c1)c1ccc2c(c1)OCO2 [Compound 135, 4-[1-[3-[1,3-Benzodioxol-5-yl(methyl)carbamoyl]phenyl]-3-(trifluoromethyl)-6,7-dihydro-4H-pyrazolo[4,3-c]pyridin-5-yl]butanoic acid]",> 2000
13,"Cc1nc2ccc(N(C)C(=O)c3cccc(-n4nc(C(F)(F)F)c5c4CCN(S(=O)(=O)c4c(C)noc4C)C5)c3)cc2o1 [Compound 137, 3-[5-(3,5-Dimethylisoxazol-4-yl)sulfonyl-3-(trifluoromethyl)-6,7-dihydro-4H-pyrazolo[4,3-c]pyridin-1-yl]-N-methyl-N-(2-methyl-1,3-benzoxazol-6-yl)benzamide]",< 1000
14,"Cc1nc2cc(F)c(N(C)C(=O)c3cccc(-n4nc(C(F)(F)F)c5c4CCN(S(=O)(=O)c4c(C)noc4C)C5)c3)cc2o1 [Compound 138, 3-[5-(3,5-Dimethylisoxazol-4-yl)sulfonyl-3-(trifluoromethyl)-6,7-dihydro-4H-pyrazolo[4,3-c]pyridin-1-yl]-N-(5-fluoro-2-methyl-1,3-benzoxazol-6-yl)-N-methyl-benzamide]",< 1000
15,"CN(C(=O)c1cccc(-n2nc(C(F)(F)F)c3c2CCN(C2CC(C(=O)O)C2)C3)c1)c1ccc2c(c1)OCO2 (stereo not drawn) [Compound 140, 3-[1-[3-[1,3-Benzodioxol-5-yl(methyl)carbamoyl]phenyl]-3-(trifluoromethyl)-6,7-dihydro-4H-pyrazolo[4,3-c]pyridin-5-yl]cyclobutanecarboxylic acid]",> 2000
16,"CN(C(=O)c1cccc(-n2nc(C(F)(F)F)c3c2CCN(C(=O)C(C)(C)C)C3)c1)c1ccc2nccnc2c1 [Compound 141, 3-[5-(2,2-Dimethylpropanoyl)-3-(trifluoromethyl)-6,7-dihydro-4H-pyrazolo[4,3-c]pyridin-1-yl]-N-methyl-N-quinoxalin-6-yl-benzamide]",< 1000
17,"COc1ncc(N(C)C(=O)c2cccc(-n3nc(C(F)(F)F)c4c3CCN(C(=O)C(C)(C)C)C4)c2)cn1 [Compound 142, 3-[5-(2,2-Dimethylpropanoyl)-3-(trifluoromethyl)-6,7-dihydro-4H-pyrazolo[4,3-c]pyridin-1-yl]-N-(2-methoxypyrimidin-5-yl)-N-methyl-benzamide]",> 2000
18,"CN(C(=O)c1cccc(-n2nc(C(F)(F)F)c3c2C(Oc2ccc(C(=O)O)c(F)c2)CCC3)c1)c1ccc2c(c1)OC(F)(F)O2 (stereo not drawn) [Compound 147, 2-Fluoro-4-[[1-[3-[(2,2-difluoro-1,3-benzodioxol-5-yl)-methyl-carbamoyl]phenyl]-3-(trifluoromethyl)-4,5,6,7-tetrahydroindazol-7-yl]oxy]benzoic acid]",< 1000
19,"Cc1nc2cc(F)c(N(C)C(=O)c3cccc(-n4nc(C(F)(F)F)c5c4C(Oc4ccc(C(=O)O)cc4)CCC5)c3)cc2o1 (stereo not drawn) [Compound 153, 4-[[1-[3-[(5-Fluoro-2-methyl-1,3-benzoxazol-6-yl)-methyl-carbamoyl]phenyl]-3-(trifluoromethyl)-4,5,6,7-tetrahydroindazol-7-yl]oxy]benzoic acid]",< 1000
20,"[2H]C([2H])([2H])N(C(=O)c1cccc(-n2nc(C(F)(F)F)c3c2C(Oc2ccc(C(=O)O)cc2)CCC3)c1)c1ccc2c(c1)OC(F)(F)O2 (stereo not drawn) [Compound 155, 4-[[1-[3-[(2,2-Difluoro-1,3-benzodioxol-5-yl)-(trideuteriomethyl)carbamoyl]phenyl]-3-(trifluoromethyl)-4,5,6,7-tetrahydroindazol-7-yl]oxy]benzoic acid]",< 1000
21,"Cc1nc2ccc(N(C)C(=O)c3cccc(-n4nc(C(F)(F)F)c5c4C(Oc4ccc(C(=O)O)cc4)CCC5)c3)cc2o1 (stereo not drawn) [Compound 157, 4-[[1-[3-[Methyl-(2-methyl-1,3-benzoxazol-6-yl)carbamoyl]phenyl]-3-(trifluoromethyl)-4,5,6,7-tetrahydroindazol-7-yl]oxy]benzoic acid]",< 1000
22,"Cc1nc2ncc(N(C)C(=O)c3cccc(-n4nc(C(F)(F)F)c5c4C(Oc4ccc(C(=O)O)cc4)CCC5)c3)cc2o1 (stereo not drawn) [Compound 159, 4-[[1-[3-[Methyl-(2-methyloxazolo[4,5-b]pyridin-6-yl)carbamoyl]phenyl]-3-(trifluoromethyl)-4,5,6,7-tetrahydroindazol-7-yl]oxy]benzoic acid]",1000 to 2000
23,"COc1cc(OC2CCCc3c(C(F)(F)F)nn(-c4cccc(C(=O)N(C)c5ccc6c(c5)OC(F)(F)O6)c4)c32)ccc1C(=O)O (stereo not drawn) [Compound 161, 4-[[1-[3-[(2,2-Difluoro-1,3-benzodioxol-5-yl)-methyl-carbamoyl]phenyl]-3-(trifluoromethyl)-4,5,6,7-tetrahydroindazol-7-yl]oxy]-2-methoxy-benzoic acid]",< 1000
24,"CN(C(=O)c1cccc(-n2nc(C(F)(F)F)c3c2C(Oc2ccc(C(N)=O)cc2)CCC3)c1)c1ccc2c(c1)OC(F)(F)O2 (stereo not drawn) [Compound 162, 3-[7-(4-Carbamoylphenoxy)-3-(trifluoromethyl)-4,5,6,7-tetrahydroindazol-1-yl]-N-(2,2-difluoro-1,3-benzodioxol-5-yl)-N-methyl-benzamide]",< 1000
25,"CN(C(=O)c1cccc(-n2nc(C(F)(F)F)c3c2C(Oc2ccc(C(=O)O)nc2)CCC3)c1)c1ccc2c(c1)OC(F)(F)O2 (stereo not drawn) [Compound 164, 5-[[1-[3-[(2,2-Difluoro-1,3-benzodioxol-5-yl)-methyl-carbamoyl]phenyl]-3-(trifluoromethyl)-4,5,6,7-tetrahydroindazol-7-yl]oxy]pyridine-2-carboxylic acid]",< 1000
26,"COc1cncc(N(C)C(=O)c2cccc(-n3nc(C(F)(F)F)c4c3C(Oc3ccc(C(=O)O)cc3)CCC4)c2)c1 (stereo not drawn) [Compound 166, 4-[[1-[3-[(5-Methoxy-3-pyridyl)-methyl-carbamoyl]phenyl]-3-(trifluoromethyl)-4,5,6,7-tetrahydroindazol-7-yl]oxy]benzoic acid]",< 1000
27,"COc1ncc(N(C)C(=O)c2cccc(-n3nc(C(F)(F)F)c4c3C(Oc3ccc(C(=O)O)cc3)CCC4)c2)cn1 (stereo not drawn) [Compound 168, 4-[[1-[3-[(2-Methoxypyrimidin-5-yl)-methyl-carbamoyl]phenyl]-3-(trifluoromethyl)-4,5,6,7-tetrahydroindazol-7-yl]oxy]benzoic acid]",< 1000
